Assay results as given in US20100274050A1, “SOLID MILNACIPRAN AND PROCESS FOR THE PREPARATION OF THE SAME” (Glenmark Generics Limited, priority 2009, published 2010).
Counter-ions that a name gives are not always drawn.

Experiment: Bulk density / tapped density (tapped density tester ETD-1020)
Format: physicochemical
Description: The bulk density used tapped density tester dual-platform ETD-1020 (Electrolab). System specifications. Speed: nominal rate of 300 taps per minute, Accuracy: Actual setting ±1 tap, Drop height: 14±2 mm. Platform rotation: 5-15 rotations/minute.

In the case of `CCN(CC)C(=O)C1(c2ccccc2)CC1CN` (stereo not shown) [milnacipran hydrochloride, Milnacipran hydrochloride], the Tapped density is reported as “Tapped density = 0.43 g/ml”.
